Experimental findings from patent publication US9108983B2, “Pyrrole compounds, a process for their preparation and pharmaceutical compositions containing them” (LES LABORATOIRES SERVIER, priority 2013, dated 2015) are described below.

One assay concerns the target Bcl-2 protein (histag-Bcl-2, UniProtKB P10415) (Homo sapiens (Human), UniProt P10415). As to the kind of experiment: Inhibition of Bcl-2 by the fluorescence polarisation technique. It counts as binding. The note with it: incubation for 2 hours, read-out: IC50 (nM) Bcl-2 FP. Put shortly: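 In pH 7.4 buffer (Hepes 10 mM, NaCl 150 mM, Tween20 0.05%), test compounds at increasing concentrations competed with a fluorescein peptide (1.00×10^−8 M final) for histag-Bcl-2 (2.50×10^−8 M final). Readout was fluorescence polarisation after a 2 h incubation.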
(In general: Fluorescence polarisation rises when a labelled molecule tumbles more slowly, as on binding a larger partner.)

Assay [1] relates to RS4;11 leukaemia tumour line. As to the kind of experiment: In vitro cytotoxicity (Microculture Tetrazolium Assay). The note with it: Homo sapiens, RS4-11, 48 h, RS4;11 cells, exposed for 48 hours, cell viability; read-out: IC50 (nM) MTT RS4;11. In kind it is cell-based. As for the experimental part: The cytotoxicity studies were carried out on the RS4;11 leukaemia tumour line.
The cells are distributed onto microplates and exposed to the test compounds for 48 hours.
The cell viability is then quantified by a colorimetric assay, the Microculture Tetrazolium Assay (Cancer Res., 1987, 47, 939-942).

Where a name gives a salt, the structure may show the parent alone.

Sequence of Bcl-2 protein (P10415 whole entry): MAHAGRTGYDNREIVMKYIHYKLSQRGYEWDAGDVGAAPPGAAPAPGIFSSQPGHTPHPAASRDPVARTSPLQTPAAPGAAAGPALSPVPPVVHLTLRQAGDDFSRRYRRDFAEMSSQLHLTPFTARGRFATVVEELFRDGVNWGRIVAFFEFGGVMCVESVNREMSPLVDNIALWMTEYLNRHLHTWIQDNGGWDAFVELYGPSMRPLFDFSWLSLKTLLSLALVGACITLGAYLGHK

For `Cc1c(C(=O)N(c2ccc(O)cc2)c2cc3ccn(C)c3cn2)cc(-c2cc3c(cc2C(=O)N2Cc4ccccc4C[C@H]2CN2CCOCC2)OCO3)n1C` [Example 387, N-(4-Hydroxyphenyl)-1,2-dimethyl-N-(1-methyl-1H-pyrrolo[2,3-c]pyridin-5-yl)-5-(6-{[(3S)-3-(morpholin-4-ylmethyl)-3,4-dihydroisoquinolin-2(1H)-yl]carbonyl}-1,3-benzodioxol-5-yl)-1H-pyrrole-3-carboxamide hydrochloride], the IC50 – broadly, the concentration at which inhibition is half-maximal – on Bcl-2 protein worked out at 20.6 nM; in assay [1] it was 243 nM.
For `Cc1c(C(=O)N(c2ccc(O)cc2)c2cc3ccn(C)c3cn2)cc(-c2cc(Cl)ccc2C(=O)N2Cc3ccccc3C[C@H]2CN2CCOCC2)n1C` [Example 389, 5-(5-Chloro-2-{[(3S)-3-(morpholin-4-ylmethyl)-3,4-dihydroisoquinolin-2(1H)-yl]carbonyl}phenyl)-N-(4-hydroxyphenyl)-1,2-dimethyl-N-(1-methyl-1H-pyrrolo[2,3-c]pyridin-5-yl)-1H-pyrrole-3-carboxamide hydrochloride], in that order: 14.7 nM and 208 nM.
As to `Cc1c(C(=O)N(c2ccccc2)c2cnc3c(ccn3C)c2)cc(-c2cc(Cl)ccc2C(=O)N2Cc3ccccc3C[C@H]2CN2CCOCC2)n1C` [Example 390, 5-(5-Chloro-2-{[(3S)-3-(morpholin-4-ylmethyl)-3,4-dihydroisoquinolin-2(1H)-yl]carbonyl}phenyl)-1,2-dimethyl-N-(1-methyl-1H-pyrrolo[2,3-b]pyridin-5-yl)-N-phenyl-1H-pyrrole-3-carboxamide], the results for the half-maximal inhibitory concentration (IC50) (on Bcl-2 protein; in assay [1]) were 21.2 nM and 173 nM, respectively.
For `Cc1c(C(=O)N(c2ccc(O)cc2)c2ccc3c(ccn3C)n2)cc(-c2cc(Cl)ccc2C(=O)N2Cc3ccccc3C[C@H]2CN2CCOCC2)n1C` [Example 391, 5-(5-Chloro-2-{[(3S)-3-(morpholin-4-ylmethyl)-3,4-dihydroisoquinolin-2(1H)-yl]carbonyl}phenyl)-N-(4-hydroxyphenyl)-1,2-dimethyl-N-(1-methyl-1H-pyrrolo[3,2-b]pyridin-5-yl)-1H-pyrrole-3-carboxamide hydrochloride], in that order: 30.3 nM and 255 nM.
In the case of `Cc1c(C(=O)N(c2ccccc2)c2ccc(O)cc2)cc(-c2cc(Cl)ccc2C(=O)N2Cc3ccccc3C[C@H]2CCCN2CCOCC2)n1C` [Example 392, 5-(5-Chloro-2-{[(3R)-3-[3-(morpholin-4-yl)propyl]-3,4-dihydroisoquinolin-2(1H)-yl]carbonyl}phenyl)-N-(4-hydroxyphenyl)-1,2-dimethyl-N-phenyl-1H-pyrrole-3-carboxamide hydrochloride], the results for the concentration for half-maximal inhibition (IC50) (at Bcl-2 protein; in assay [1]) were 3.8 nM and 11.4 nM, respectively.
For `Cc1c(C(=O)N(c2ccc(O)cc2)c2cnc3c(ccn3C)c2)cc(-c2cc(Cl)ccc2C(=O)N2Cc3ccccc3C[C@H]2CCCN2CCOCC2)n1C` [Example 393, 5-(5-Chloro-2-{[(3R)-3-[3-(morpholin-4-yl)propyl]-3,4-dihydroisoquinolin-2(1H)-yl]carbonyl}phenyl)-N-(4-hydroxyphenyl)-1,2-dimethyl-N-(1-methyl-1H-pyrrolo[2,3-b]pyridin-5-yl)-1H-pyrrole-3-carboxamide hydrochloride], in that order: 2.1 nM and 1.95 nM.
On to `Cc1c(C(=O)N(c2ccc(O)cc2)c2cnc3c(c2)CCN3C)cc(-c2cc(Cl)ccc2C(=O)N2Cc3ccccc3C[C@H]2CCCN2CCOCC2)n1C` [Example 394, 5-(5-Chloro-2-{[(3R)-3-[3-(morpholin-4-yl)propyl]-3,4-dihydroisoquinolin-2(1H)-yl]carbonyl}phenyl)-N-(4-hydroxyphenyl)-1,2-dimethyl-N-(1-methyl-2,3-dihydro-1H-pyrrolo[2,3-b]pyridin-5-yl)-1H-pyrrole-3-carboxamide], for which the IC50 turned out to be 2.5 nM on Bcl-2 protein and 2.76 nM in assay [1].
As for `COc1ccc(N(C(=O)c2cc(-c3cc(Cl)ccc3C(=O)N3Cc4ccccc4C[C@H]3CN3CCOCC3)n(C)c2C)c2ccc(O)cc2)cc1C#N` [Example 395, 5-(5-Chloro-2-{[(3S)-3-(morpholin-4-ylmethyl)-3,4-dihydroisoquinolin-2(1H)-yl]carbonyl}phenyl)-N-(3-cyano-4-methoxyphenyl)-N-(4-hydroxyphenyl)-1,2-dimethyl-1H-pyrrole-3-carboxamide hydrochloride], the half-inhibitory concentration (IC50) on Bcl-2 protein was 3.5 nM; in assay [1] it was 7.57 nM.
`Cc1c(C(=O)N(c2ccc(O)c(F)c2)c2cnn(C)c2)cc(-c2cc3c(cc2C(=O)N2Cc4ccccc4C[C@H]2CN2CCOCC2)OCO3)n1C` [Example 396, N-(3-Fluoro-4-hydroxyphenyl)-1,2-dimethyl-N-(1-methyl-1H-pyrazol-4-yl)-5-(6-{[(3S)-3-(morpholin-4-ylmethyl)-3,4-dihydroisoquinolin-2(1H)-yl]carbonyl}-1,3-benzodioxol-5-yl)-1H-pyrrole-3-carboxamide hydrochloride]: the IC50 on Bcl-2 protein amounted to 15.7 nM; in assay [1], 116 nM.
For `COc1ncc(N(C(=O)c2cc(-c3cc(Cl)ccc3C(=O)N3Cc4ccccc4C[C@H]3CN3CCOCC3)n(C)c2C)c2ccc(O)cc2)cn1` [Example 397, 5-(5-Chloro-2-{[(3S)-3-(morpholin-4-ylmethyl)-3,4-dihydroisoquinolin-2(1H)-yl]carbonyl}phenyl)-N-(4-hydroxyphenyl)-N-(2-methoxypyrimidin-5-yl)-1,2-dimethyl-1H-pyrrole-3-carboxamide], the IC50 on Bcl-2 protein amounted to 4.5 nM; in assay [1], 37.1 nM.
Regarding `Cc1c(C(=O)N(c2ccc(O)cc2)c2cccc(C#N)c2)cc(-c2cc(Cl)ccc2C(=O)N2Cc3ccccc3C[C@H]2CN2CCOCC2)n1C` [Example 398, 5-(5-Chloro-2-{[(3S)-3-(morpholin-4-ylmethyl)-3,4-dihydroisoquinolin-2(1H)-yl]carbonyl}phenyl)-N-(3-cyanophenyl)-N-(4-hydroxyphenyl)-1,2-dimethyl-1H-pyrrole-3-carboxamide hydrochloride], the figures for the IC50 (at Bcl-2 protein; in assay [1]) were 3.9 nM and 13.4 nM, respectively.
For `Cc1c(C(=O)N(c2ccc(O)c(F)c2)c2cnn(C)c2)cc(-c2cc(Cl)ccc2C(=O)N2Cc3ccccc3C[C@H]2CN2CCOCC2)n1C` [Example 399, 5-(5-Chloro-2-{[(3S)-3-(morpholin-4-ylmethyl)-3,4-dihydroisoquinolin-2(1H)-yl]carbonyl}phenyl)-N-(3-fluoro-4-hydroxyphenyl)-1,2-dimethyl-N-(1-methyl-1H-pyrazol-4-yl)-1H-pyrrole-3-carboxamide hydrochloride], in that order: 9.9 nM and 155 nM.
On to `COC(=O)c1ccnc(N(C(=O)c2cc(-c3cc(Cl)ccc3C(=O)N3Cc4ccccc4C[C@H]3CN3CCOCC3)n(C)c2C)c2ccc(O)cc2)c1` [Example 400, Methyl 2-[{[5-(5-chloro-2-{[(3S)-3-(morpholin-4-ylmethyl)-3,4-dihydroisoquinolin-2(1H)-yl]carbonyl}phenyl)-1,2-dimethyl-1H-pyrrol-3-yl]carbonyl}(4-hydroxyphenyl)amino]pyridine-4-carboxylate hydrochloride], for which the half-inhibitory concentration (IC50) on Bcl-2 protein came out at 49 nM; in assay [1], 469 nM.
For `Cc1c(C(=O)N(c2ccc(O)cc2)c2ccc(F)c(C#N)c2)cc(-c2cc(Cl)ccc2C(=O)N2Cc3ccccc3C[C@H]2CN2CCOCC2)n1C` [Example 401, 5-(5-Chloro-2-{[(3S)-3-(morpholin-4-ylmethyl)-3,4-dihydroisoquinolin-2(1H)-yl]carbonyl}phenyl)-N-(3-cyano-4-fluorophenyl)-N-(4-hydroxyphenyl)-1,2-dimethyl-1H-pyrrole-3-carboxamide hydrochloride], in that order: 8 nM and 24.3 nM.
Regarding `Cc1c(C(=O)N(c2ccc(O)cc2)c2ccnc(C#N)n2)cc(-c2cc(Cl)ccc2C(=O)N2Cc3ccccc3C[C@H]2CN2CCOCC2)n1C` [Example 404, 5-(5-Chloro-2-{[(3S)-3-(morpholin-4-ylmethyl)-3,4-dihydroisoquinolin-2(1H)-yl]carbonyl}phenyl)-N-(2-cyanopyrimidin-4-yl)-N-(4-hydroxyphenyl)-1,2-dimethyl-1H-pyrrole-3-carboxamide hydrochloride], the results for the IC50 (on Bcl-2 protein; in assay [1]) were 24.4 nM and 85.5 nM, respectively.
For `Cc1c(N(C(=O)c2cc(-c3ccccc3C(=O)N3Cc4ccccc4C[C@H]3CN3CCOCC3)n(C)c2C)c2ccc(O)cc2)cc(C#N)n1C` [Example 406, N-(5-Cyano-1,2-dimethyl-1H-pyrrol-3-yl)-N-(4-hydroxyphenyl)-1,2-dimethyl-5-(2-{[(3S)-3-(morpholin-4-ylmethyl)-3,4-dihydroisoquinolin-2(1H)-yl]carbonyl}phenyl)-1H-pyrrole-3-carboxamide hydrochloride], in that order: 4.2 nM and 10.6 nM.
Take `COc1ccc(C(=O)N2Cc3ccccc3C[C@H]2CN2CCOCC2)c(-c2cc(C(=O)N(c3ccc(O)c(F)c3)c3cnn(C)c3)c(C)n2C)c1` [Example 407, N-(3-Fluoro-4-hydroxyphenyl)-5-(5-methoxy-2-{[(3S)-3-(morpholin-4-ylmethyl)-3,4-dihydroisoquinolin-2(1H)-yl]carbonyl}phenyl)-1,2-dimethyl-N-(1-methyl-1H-pyrazol-4-yl)-1H-pyrrole-3-carboxamide hydrochloride]: the IC50 was 20.6 nM on Bcl-2 protein and 150 nM in assay [1].
